Results published in PubChem BioAssay (NCI).
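Compound exposure: 48 hours, 5 concentrations, 96-well plates. TGI is the concentration that stops growth completely.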

What was measured:
Assay in all cases: NCI tumour cell line growth inhibition, 48 h
SF-268 CNS = test system: SF-268 CNS
U251 CNS = test system: U251 CNS
SK-MEL-5 melanoma = test system: SK-MEL-5 melanoma
UACC-257 melanoma = test system: UACC-257 melanoma
HCT-116 colon = test system: HCT-116 colon
SNB-19 CNS = test system: SNB-19 CNS
RPMI-8226 leukemia = test system: RPMI-8226 leukemia
K-562 leukemia = test system: K-562 leukemia
SK-OV-3 ovarian = test system: SK-OV-3 ovarian
OVCAR-5 ovarian = test system: OVCAR-5 ovarian
DMS 114 small cell lung = test system: DMS 114 small cell lung
M19-MEL melanoma = test system: M19-MEL melanoma
DLD-1 colon = test system: DLD-1 colon
HOP-62 NSCLC = test system: HOP-62 NSCLC
SN12C renal = test system: SN12C renal
CAKI-1 renal = test system: CAKI-1 renal
OVCAR-4 ovarian = test system: OVCAR-4 ovarian
A549 NSCLC = test system: A549 NSCLC
LOX IMVI melanoma = test system: LOX IMVI melanoma
HOP-92 NSCLC = test system: HOP-92 NSCLC
M14 melanoma = test system: M14 melanoma
UO-31 renal = test system: UO-31 renal
TK-10 renal = test system: TK-10 renal
SW-620 colon = test system: SW-620 colon
A498 renal = test system: A498 renal
ACHN renal = test system: ACHN renal
NCI-H23 lung = test system: NCI-H23 lung
NCI-H460 lung = test system: NCI-H460 lung
MOLT-4 leukemia = test system: MOLT-4 leukemia
786-0 renal = test system: 786-0 renal
IGROV1 ovarian = test system: IGROV1 ovarian
NCI-H226 lung = test system: NCI-H226 lung
HT29 colon = test system: HT29 colon
HL-60(TB) leukemia = test system: HL-60(TB) leukemia
SF-295 CNS = test system: SF-295 CNS
HCC-2998 colon = test system: HCC-2998 colon
LXFL 529 NSCLC = test system: LXFL 529 NSCLC
CCRF-CEM leukemia = test system: CCRF-CEM leukemia
DMS 273 small cell lung = test system: DMS 273 small cell lung
MALME-3M melanoma = test system: MALME-3M melanoma
UACC-62 melanoma = test system: UACC-62 melanoma
SK-MEL-28 melanoma = test system: SK-MEL-28 melanoma
HOP-18 NSCLC = test system: HOP-18 NSCLC
COLO 205 colon = test system: COLO 205 colon
OVCAR-3 ovarian = test system: OVCAR-3 ovarian
OVCAR-8 ovarian = test system: OVCAR-8 ovarian
HCT-15 colon = test system: HCT-15 colon
RXF-631 renal = test system: RXF-631 renal

Q: For CCCCCCCCOCC(CO)OCCCCCCCC (stereo not drawn), which TGI (SF-268 CNS) is on record?
A: 29.7 µM

Q: What about the TGI (U251 CNS) of the same molecule?
A: 32.3 µM

Q: And the TGI (SK-MEL-5 melanoma)?
A: 33.8 µM

Q: And the TGI (UACC-257 melanoma)?
A: 37.1 µM

Q: And the TGI (HCT-116 colon)?
A: 33.6 µM

Q: And the TGI (SNB-19 CNS)?
A: 41.8 µM

Q: What about the TGI (RPMI-8226 leukemia) of the same molecule?
A: 42.5 µM

Q: And the TGI (K-562 leukemia)?
A: 32.4 µM

Q: And the TGI (SK-OV-3 ovarian)?
A: > 100 µM

Q: And the TGI (OVCAR-5 ovarian)?
A: 32.7 µM

Q: And the TGI (DMS 114 small cell lung)?
A: 42.3 µM

Q: What about the TGI (M19-MEL melanoma) of the same molecule?
A: 36.3 µM

Q: What about the TGI (DLD-1 colon) of the same molecule?
A: 33.1 µM

Q: What about the TGI (HOP-62 NSCLC) of the same molecule?
A: 37.2 µM

Q: And the TGI (SN12C renal)?
A: 31.8 µM

Q: What about the TGI (CAKI-1 renal) of the same molecule?
A: > 100 µM

Q: And the TGI (OVCAR-4 ovarian)?
A: 34.7 µM

Q: And the TGI (A549 NSCLC)?
A: 37.2 µM

Q: What about the TGI (LOX IMVI melanoma) of the same molecule?
A: 32 µM

Q: And the TGI (HOP-92 NSCLC)?
A: 49.2 µM

Q: What about the TGI (M14 melanoma) of the same molecule?
A: 67.1 µM

Q: And the TGI (UO-31 renal)?
A: 35.9 µM

Q: What about the TGI (TK-10 renal) of the same molecule?
A: 34.4 µM

Q: What about the TGI (SW-620 colon) of the same molecule?
A: 37.4 µM

Q: What about the TGI (A498 renal) of the same molecule?
A: 42 µM

Q: What about the TGI (ACHN renal) of the same molecule?
A: 31.8 µM

Q: What about the TGI (NCI-H23 lung) of the same molecule?
A: 33 µM

Q: What about the TGI (NCI-H460 lung) of the same molecule?
A: 30 µM

Q: What about the TGI (MOLT-4 leukemia) of the same molecule?
A: 37.9 µM

Q: What about the TGI (786-0 renal) of the same molecule?
A: 33.9 µM

Q: And the TGI (IGROV1 ovarian)?
A: 40.8 µM

Q: What about the TGI (NCI-H226 lung) of the same molecule?
A: 44.9 µM

Q: And the TGI (HT29 colon)?
A: 36.6 µM

Q: And the TGI (HL-60(TB) leukemia)?
A: 34.1 µM

Q: What about the TGI (SF-295 CNS) of the same molecule?
A: 30.5 µM

Q: And the TGI (HCC-2998 colon)?
A: 33.6 µM

Q: And the TGI (LXFL 529 NSCLC)?
A: 33.1 µM

Q: What about the TGI (CCRF-CEM leukemia) of the same molecule?
A: 42.5 µM

Q: What about the TGI (DMS 273 small cell lung) of the same molecule?
A: 33.4 µM

Q: And the TGI (MALME-3M melanoma)?
A: 34.9 µM

Q: And the TGI (UACC-62 melanoma)?
A: 43.3 µM

Q: And the TGI (SK-MEL-28 melanoma)?
A: 34.2 µM

Q: What about the TGI (HOP-18 NSCLC) of the same molecule?
A: 24.5 µM

Q: What about the TGI (COLO 205 colon) of the same molecule?
A: 39.7 µM

Q: And the TGI (OVCAR-3 ovarian)?
A: 34.2 µM

Q: What about the TGI (OVCAR-8 ovarian) of the same molecule?
A: 37.7 µM

Q: And the TGI (HCT-15 colon)?
A: 29.7 µM

Q: What about the TGI (RXF-631 renal) of the same molecule?
A: 32 µM
